US11185523B2, “Use of bipolar trans carotenoids with chemotherapy and radiotherapy for treatment of cancer” (DIFFUSION PHARMACEUTICALS LLC, priority 2016, dated 2021)

Legend:
[1] = Change in partial pressure of oxygen, low vs high efficacious dose (FIG. 1); format: in vivo; conditions: FIG. 1 hyperoxic rat
Experimental: FIG. 1 illustrates the change in partial pressure of oxygen of a hyperoxic rat resulting from administration of a low efficacious dose amount compared to a high efficacious dose amount of TSC.
It has been discovered that for a mammal, there are two concentrations of a bipolar trans carotenoid, such as TSC, that result in increased oxygen partial pressure—the “low” dose and the “high” dose—in a tumor. For humans, the low dose range is 0.15-0.35 mg/kg and the high dose range is 0.75 to 2.0 mg/kg. Both doses result in approximately the same maximum increase in oxygen partial pressure.

hypoxic tissue = assay: Reoxygenation of hypoxic tissue after low and high dose; format: in vivo, human; conditions: humans
Text: With bipolar trans carotenoids such as TSC, there are discrete concentrations that produce efficacy in causing maximum oxygen partial pressure in animals or humans.

[2] = test system: Cancer: Radiation Sensitizer; assay: Pre-clinical efficacy study: Cancer: Radiation Sensitizer; format: in vivo
Text: (§1) It has also been determined that several non-cancer disorders are beneficially treated utilizing an administration regimen of a bipolar trans carotenoid such as TSC, as described below.

Memory Recall = assay: Pre-clinical efficacy study: Memory Recall; format: in vivo; conditions: Rat
Text: as §1

Hemorrhagic Shock = assay: Pre-clinical efficacy study: Hemorrhagic Shock; format: in vivo
Text: as §1

[3] = Phase 1 and Phase 2 clinical trials of TSC, safety; format: in vivo; conditions: 148 human subjects
Text: A Phase ½ clinical trial was recently completed examining TSC in patients with GBM. The Phase ½ clinical trial in GBM enrolled 59 patients with newly diagnosed disease that received TSC in conjunction with radiation therapy (RT) and temozolomide (TMZ). In the Phase I portion of the trial TSC was initially administered three times per week at half-dose to three patients prior to radiation. Six additional patients received full dose TSC for six weeks in combination with radiation. […] Fifty additional patients were enrolled in the Phase II trial at full dose TSC in combination with TMZ and RT. Four weeks after completion of RT, all patients resumed TMZ for five days every four weeks, but no further TSC was administered.

DMBA breast tumors = assay: DMBA breast tumor model, TSC before chemotherapy; format: in vivo

## CC(/C=C/C=C(\C)C(=O)[O-])=C\C=C\C=C(C)\C=C\C=C(/C)C(=O)[O-].[Na+].[Na+] [TSC, trans sodium crocetinate]
[1]
  oxygen partial pressure, duration of maximum: sustained maximum oxygen partial pressure
Hypoxic tissue; high dose of 0.75-2.0 mg/kg, e.g. 1.5 mg/kg
  duration of maximum reoxygenation: lasts for over an hour
Hypoxic tissue; low dose of 0.15-0.35 mg/kg
  duration of maximum reoxygenation: lasts for a short time
Hypoxic tissue; low dose of 0.15-0.35 mg/kg, e.g. 0.25 mg/kg
  time of maximum reoxygenation of hypoxic tissue after injection: 50 min
[2]; Mouse
  Best Dosage: Low
[2]; Rat
  Best Dosage: Low
Memory Recall
  Best Dosage: High
Hemorrhagic Shock; Pig
  Best Dosage: Low
Hemorrhagic Shock; Rat, low dose (for rats) 0.1 mg/kg, high 0.25 mg/kg
  Best Dosage: Low
[3]
  serious adverse events: no serious adverse events reported
DMBA breast tumors; low dose (for rats) 0.1 mg/kg TSC IV 50 minutes before chemotherapy
  effect on tumor volume with cisplatin: not effective
DMBA breast tumors; low dose of TSC 50 minutes before chemotherapy
  effect on tumor volume with gemcitabine: not effective
